Here are results for two compounds from patent publication EP4729061A1, “USE OF AKT INHIBITOR IN PREPARATION OF DRUG FOR PREVENTING OR TREATING BREAST CANCER” (Nanjing Chia Tai Tianqing Pharmaceutical Co., Ltd., priority 2023, dated 2024).

In one data set the test system is MCF-7 Cells. Briefly: Cell proliferation inhibition, CTG (CelltiterGlo) method, alone or combined with fulvestrant. Format: cell-based. The note with it: compound alone; for IC50: Homo sapiens, MCF7, 168 h, 7 days; for Maximum Inhibition Rate on MCF-7 Cells: maximum value fitted by GraphPad Prism 8. Here is the method:
(§1) a). BT-474 cells were cultured in Hybri-Care medium supplemented with 1% antibiotics and 10% FBS, and incubated in the condition of 37°C with 5% CO2; b). MCF-7 cells were cultured in EMEM medium supplemented with 1% antibiotics, 0.01 mg/mL insulin, and 10% FBS, and incubated in the condition of 37°C with 5% CO2; c). ZR-75-1 cells were cultured in RPMI-1640 medium supplemented with 1% antibiotics and 10% FBS, and incubated in the condition of 37°C with 5% CO2; d). T47D cells were cultured in RPMI-1640 medium supplemented with 1% antibiotics, 0.2 U/mL insulin, and 10% FBS, and incubated in the condition of 37°C with 5% CO2; e) CAMA-1 cells were cultured in EMEM medium supplemented with 1% antibiotics and 10% FBS, and incubated in the condition of 37°C with 5% CO2.
(§2) a). Cells were routinely cultured until reaching 80%-90% confluence and when the required cell number was reached, they were harvested; b). Resuspended in the corresponding medium, counted, and prepared into a cell suspension with appropriate density; c). The cell suspension was added to a 384-well plate at 40 µL per well. Table 1. Plating densities of different cell lines
(§3) d). The cells were cultured overnight in an incubator at 37°C with 5% CO2 .
(§4) a). The compound of Formula (A) was serially diluted 3-fold for 10 concentrations starting from a stock solution of 60 mM (using the monofumarate dihydrate of the compound of Formula (A), with the concentration calculated based on the free base of the compound of Formula (A); the compound of Formula (A) or salt thereof was prepared with reference to the preparation method disclosed in WO2022017448A1); b). Fulvestrant was diluted from 10 mM to 2 mM with DMSO, then serially diluted 3-fold for 10 concentrations; c). Fulvestrant was diluted from 2 mM to 0.2 mM with DMSO, then serially diluted 3-fold for 10 concentrations; d). Fulvestrant was diluted from 0.2 mM to 2 µM with DMSO; e). Fulvestrant was diluted from 2 µM to 0.8 µM with DMSO; f). Fulvestrant was diluted from 2 µM to 0.3 µM with DMSO; g) Fulvestrant was diluted from 0.8 µM to 0.08 µM with DMSO; h). The final concentration of DMSO was 0.1%; i). Cells supplemented with DMSO served as control wells for high reading values; j). Cell-free medium served as control wells for low reading values.
(§5) 24 Hours after MCF-7, T47D, and CAMA-1 cells were plated, the compound was administered alone. For the compound of Formula (A): 20 nL of the compound prepared in step 2.3 a) + 20 nL of DMSO were added. For compound fulvestrant: 20 nL of the compound prepared in step 2.3 c) + 20 nL of DMSO were added.
24 Hours after MCF-7 cells were plated, the compound of Formula (A) was administered in combination with fulvestrant: 20 nL of the compound prepared in step 2.3 a) + 20 nL of the compounds prepared in step 2.3 c), e), and f). […]
On the technique in general: ATP-based viability assays read luminescence as a measure of living cells.

Data set [1] in a line: Plasma pharmacokinetics in the xenograft mice on day 28 of treatment. Format: in vivo, female BALB/c nude mice. The note with it: for AUC(0-inf) / AUC(0-t) / Cmax / Tmax / half-life / MRT inf: female, BALB/c nude; for MRT inf: read-out: MRTInf_obs. An excerpt:
The purpose of this study was to evaluate the therapeutic efficacy of the compound of Formula (A) in combination with fulvestrant in the MCF-7 human breast cancer subcutaneous xenograft model in female BALB/c nude mice.
On the 28th day of treatment for the mice in Experiment 2, animal plasma was continuously collected for PK detection, with a total of 112 plasma samples and 16 tumor samples. PK sample sampling protocol

For another data set, the system named is T47D Cells. In words: Cell proliferation inhibition, CTG (CelltiterGlo) method, alone or combined with fulvestrant. The note with it: compound alone; for IC50: Homo sapiens, T47D, 168 h, 7 days; for Maximum Inhibition Rate on T47D Cells: maximum value fitted by GraphPad Prism 8. It is filed as cell-based. How it is done:
as §1, §2, §3, §4, §5
24 Hours after T47D cells were plated, the compound of Formula (A) was administered in combination with fulvestrant: 20 nL of the compound prepared in step 2.3 a) + 20 nL of the compounds prepared in step 2.3 c), e), and g). […]

[2] abbreviates: po, analyte: the compound of Formula (A) in plasma, 25 mg/kg p.o. alone (G2) or + Fulvestrant 5 mg/mouse (G4).
The mark [3] stands for this setting: sc, analyte: fulvestrant in plasma, 5 mg/mouse s.c. alone (G3) or + the compound of Formula (A) 25 mg/kg (G4).

Read-outs that look alike come from different tables or passages of the source.

For `CC(C)NC[C@@H](C(=O)N1CCN(c2ncnc3c2[C@H](C)CC(=O)N3)[C@H]2C[C@H]21)c1ccc(Cl)cc1` [The compound of Formula (A), (R)-4-((1S,6R)-5-((S)-2-(4-chlorophenyl)-3-(isopropylamino)propanoyl)-2,5-diazabicyclo[4.1.0]heptan-2-yl)-5-methyl-5,8-dihydropyrido[2,3-d]pyrimidin-7(6H)-one], in the data set on MCF-7 Cells, the IC50 stood at 759 nM and the “Maximum Inhibition Rate on MCF-7 Cells” value turned out to be 98.92%. Moreover, the AUC%Extrap_obs in data set [1] (analyte: the compound of Formula (A) in plasma, 25 mg/kg p.o. alone (G2) or + Fulvestrant 5 mg/mouse (G4)) was determined as 1.48%. Further, in data set [1] (setting [2]), the AUC(0-inf) worked out at 18.8 µg·h/mL, the AUC(0-t) came to 18.5 µg·h/mL, the Cmax turned out to be 1.34 µg/mL and the Tmax is 2.75 h. Also, in data set [1] (setting [2]), the half-life was 7.93 h and the MRT inf amounted to 10.5 h. For the same compound, in the data set on T47D Cells, the IC50 was determined as 358 nM and the “Maximum Inhibition Rate on T47D Cells” value was 91.47%.

For the compound `C[C@]12CC[C@@H]3c4ccc(O)cc4C[C@@H](CCCCCCCCC[S+]([O-])CCCC(F)(F)C(F)(F)F)[C@H]3[C@@H]1CC[C@@H]2O` (stereo partly shown) [Fulvestrant, reference compound], in the data set on MCF-7 Cells, the IC50 turned out to be 0.19 nM and the “Maximum Inhibition Rate on MCF-7 Cells” value is 54.67%. For the same compound, the AUC%Extrap_obs in data set [1] (analyte: fulvestrant in plasma, 5 mg/mouse s.c. alone (G3) or + the compound of Formula (A) 25 mg/kg (G4)) was 12.6%. Also, in data set [1] (setting [3]), the AUC(0-inf) was 6.61 µg·h/mL, the AUC(0-t) came to 5.78 µg·h/mL, the Cmax stood at 0.268 µg/mL and the Tmax came out at 0.375 h. Also, in data set [1] (setting [3]), the half-life is 23.6 h and the MRT inf was 37.7 h. Further, in the data set with T47D Cells, the IC50 worked out at 0.09 nM and the “Maximum Inhibition Rate on T47D Cells” value stood at 62.71%.

Usually IC50 stands for the concentration that inhibits the measured activity by half. As a reminder, the AUC(0-inf) is total exposure, with the tail of the curve extrapolated. By AUC(0-t) is commonly meant the area under the concentration-time curve up to a stated or last time point. A word on the Cmax: it is the peak of the concentration-time curve. As usually defined, the Tmax is the time from dosing to the highest level. For orientation: half-life means the time in which the quantity being followed falls by half.
